Laboratory results published in PMC10786036 (2023).

Tests used:
[1] = test system: TRF2 (RNA, G4) CGGGAGGGCGGGGAGGGC; test: fluorescence lifetime; settings: 100 mM KCl; 10 mM Tris-HCl pH 7.4; 2 µM TOR-G4; lifetime rises with G4 RNA in totRNA
[2] = test system: c-MYC (DNA, G4) TGAGGGTGGGTAGGGTGGGTAA; test: fluorescence lifetime; settings: 100 mM LiCl; 10 mM Tris-HCl pH 7.4; lifetime 1.3 ns lower than in K+

Question: With `COc1ccc2c(c1)N(C)C(=Cc1cc(/C=C/c3ccc(N(C)C)cc3)[n+](C)c3ccccc13)S2` as the compound, how does the binding [1] read?
Answer: The binding was “yes”.

Question: What about the binding [2] of the same compound?
Answer: The binding was “yes”.
